In patent US20260258084A1, “New Peptides as Selective IL-23 Receptor Antagonists” (Sanofi, priority 2022, published 2026):
Values after ≈ are worked out from the molar mass of the structure shown. Read-outs that look alike come from different tables or passages of the source. Starred links: 1 amine or outer side, 2 acyl side, 3 side chain; linkers in the order of their positions; H or OH if unused. Positions of bridges follow the written chain, without caps; N, C: chain ends. Non-standard residues stand in square brackets, D forms with d. Residues, ends and D or L forms follow the SMILES beside them. *: point of attachment. X3 = CN(CCCCC(=O)N[C@@H](CS[*:2])C(=O)[*:1])[*:3]; Trp(7-Me) = Cc1cccc2c(C[C@H](N)C(=O)O)c[nH]c12; 2Nal = N[C@@H](Cc1ccc2ccccc2c1)C(=O)O; AEF = NCCOc1ccc(C[C@H](N)C(=O)O)cc1; αMeL = CC(C)C[C@](C)(N)C(=O)O; Thp = NC1(C(=O)O)CCOCC1; Me2NCH2CH2 = CN(C)CC*; Aib = CC(C)(N)C(=O)O; Ahx = NCCCCCC(=O)O; Ava = NCCCCC(=O)O; βAla = NCCC(=O)O

Columns and labels:
[1] = test system: IL-23 induced STAT3 signaling in HEK-Blue™ IL-23 cells; assay: IL-23 induced STAT3 signaling in HEK-Blue IL-23 cells (SEAP reporter); format: cell-based; conditions: human IL23 0.25 ng/ml, read-out: pSTAT3
Summary of the method: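 HEK-Blue IL-23 cells (10,000/well) pre-incubated 60 min at 37 °C with serially diluted peptides, then stimulated overnight with human IL-23 (0.25 ng/ml final). STAT3-driven SEAP in supernatant detected with QUANTI-Blue after 45 min at RT (OD 620-655 nm); dose-response curves fitted.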

[2] = test system: Pancreatin; assay: Protease stability in simulated intestinal fluid (Pancreatin-SIF, FaSSIF); format: in vitro ADME; conditions: 1 μM peptide, 37° C.; for remaining at 1 h, 1 µM: 60 min, read-out: FaSSIF 60 (min), remaining percent of peptide; for remaining at 2 h, 1 µM: 120 min, read-out: FaSSIF 120 (min), remaining percent of peptide; for remaining at 4 h, 1 µM: 240 min, read-out: FaSSIF 240 (min), remaining percent of peptide
Summary of the method: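 Peptide (1 μM final) was incubated at 37° C in simulated intestinal fluid containing pancreatin (1 mg per 10 mL SIF concentrate). Samples were quenched with ethanol/0.1% HCOOH at 0, 60, 120 and 240 min and analysed by LC-MS/MS. Percent remaining is the peak area relative to time 0 (100%).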

[3] = Chemical stability assessment of peptides (relative purity loss); format: physicochemical; conditions: 24 hours at 37° C.; for Chemical stability (relative purity loss) Buffer pH 1.2: 50 mM HCl pH 1.2 + acetonitrile (1:1); for Chemical stability (relative purity loss) Buffer pH 6.5: 50 mM phosphate buffer pH 6.5 + acetonitrile (1:1); for Chemical stability (relative purity loss) Buffer pH 7.4: 50 mM phosphate buffer pH 7.4 + acetonitrile (1:1)
Summary of the method: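 Peptide solutions at 1 mg/ml (purity-corrected) in 1:1 acetonitrile with 50 mM HCl pH 1.2, or 50 mM phosphate pH 6.5 or pH 7.4, held 24 hours at 2° C. and 37° C. Supernatants analysed by UHPLC-UV; relative purity loss taken as percent drop in peak-area purity from 0 to 24 hours at 37° C.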

[4] = target: T1, human interleukin-23 receptor (recombinant human IL-23R-Fc chimera) (Homo sapiens, UniProt Q5VWK5); assay: Human ELISA IL23/IL23R (assay for specific human IL23R antagonists); format: binding; conditions: Table 10; read-out: Human ELISA IL23/IL23R IC50
T1 construct: Fc (IgG Fc fusion)
Summary of the method: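 Plates coated overnight at 4 °C with human IL23 ([…]), blocked, then serially diluted peptides added with recombinant human IL-23R-Fc (0.1 μg/ml final) for 60 min at room temperature. Bound receptor detected with anti-human IgG1-HRP and fluorogenic peroxidase substrate.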

[5] = Solubility testing of peptides at different pH; format: physicochemical; conditions: target concentration 1 mg/ml, 2 hours agitation
Summary of the method: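 Solid obtained by drying down DMSO stock was taken up at 1 mg/mL in 50 mM HCl pH 1.2 or 50 mM phosphate pH 6.5, 7.4 or 9.0, agitated gently for 2 h, then filtered (0.45 μm). Solubility by UPLC-UV peak area against a DMSO reference standard curve, corrected for extinction coefficients.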

[6] = 50 mM HCl buffer, 50 mM HCl pH 1.2, read-out: Solubility Buffer pH 1.2
[7] = 50 mM phosphate buffer pH 6.5, read-out: Solubility Buffer pH 6.5
[8] = 50 mM phosphate buffer pH 7.4, read-out: Solubility Buffer pH 7.4
[9] = 50 mM phosphate buffer pH 9.0, read-out: Solubility Buffer pH 9.0

| remaining at 1 h, 1 µM [2] | remaining at 2 h, 1 µM [2] | remaining at 4 h, 1 µM [2] | Chemical stability (relative purity loss) Buffer pH 1.2 [3] | Chemical stability (relative purity loss) Buffer pH 6.5 [3] | Chemical stability (relative purity loss) Buffer pH 7.4 [3] | IC50 [4] | solubility at 2 h [5, 6] | solubility at 2 h [5, 7] | solubility at 2 h [5, 8] | solubility at 2 h [5, 9] | SMILES | IC50 [1] |
| --- | --- | --- | --- | --- | --- | --- | --- | --- | --- | --- | --- | --- |
| 83% | 67% | 50% | 13.2% | 1.1% | 4.2% | 0.33 nM | ≥ 1070 µg/mL | ≥ 950 µg/mL | ≥ 1000 µg/mL | 810 µg/mL (≈ 496 µM) | CC(=O)N[C@H]1CCCCNC(=O)[C@@H]2CSSC[C@H](NC(=O)[C@H](CCC(N)=O)NC(=O)[C@H](Cc3c[nH]c4ccccc34)NC1=O)C(=O)N[C@@H](Cc1ccc(OCCN)cc1)C(=O)N[C@@H](Cc1ccc3ccccc3c1)C(=O)NC1(CCOCC1)C(=O)N[C@H](C(=O)N[C@@H](CC(N)=O)C(=O)NCC(N)=O)CCC(=O)N(C)CCCCC(=O)N2 [compound 16] (Ac-KWQC[AEF][2Nal][Thp]ENG-NH2; linker 1-4-8 via X3) | 32.1 nM |
| 95% | 85% | 85% | 13.0% | 0.7% | 1.5% | 0.29 nM | ≥ 1000 µg/mL | ≥ 980 µg/mL | 670 µg/mL (≈ 353 µM) | 440 µg/mL (≈ 232 µM) | CC(=O)NCCCC[C@@H]1NC(=O)[C@H](Cc2c[nH]c3c(C)cccc23)NC(=O)[C@H]([C@@H](C)O)NC(=O)[C@H](CC(N)=O)NC(=O)[C@@H]2CSSC[C@H](NC1=O)C(=O)N[C@@H](Cc1ccc(OCCN(C)C)cc1)C(=O)N[C@@H](Cc1ccc3ccccc3c1)C(=O)N[C@@](C)(CC(C)C)C(=O)N[C@H](C(=O)N[C@@H](CC(N)=O)C(=O)N[C@@H](Cc1c[nH]cn1)C(=O)NCCC(N)=O)CCC(=O)NCCCCC(=O)N2 [compound 50] ([Ava]CNT[Trp(7-Me)]K(Ac)CY(Me2NCH2CH2)[2Nal][αMeL]ENH[βAla]-NH2; disulfide 2-7; lactam N-11) | 0.98 nM |
| 102% | 100% | 85% | 13.8% | 5.5% | 19.8% | 0.44 nM | ≥ 1040 µg/mL | ≥ 1060 µg/mL | ≥ 960 µg/mL | 750 µg/mL (≈ 463 µM) | C[C@@H](O)[C@@H]1NC(=O)[C@H](CC(N)=O)NC(=O)[C@@H]2CSSC[C@H](NC(=O)[C@H](CCC(N)=O)NC(=O)[C@H](Cc3c[nH]c4ccccc34)NC1=O)C(=O)N[C@@H](Cc1ccc(OCCN)cc1)C(=O)N[C@@H](Cc1ccc3ccccc3c1)C(=O)NC(C)(C)C(=O)N[C@H](C(=O)N[C@@H](CC(N)=O)C(=O)NCC(N)=O)CC(=O)NCCCCCC(=O)N2 [compound 9] ([Ahx]CNTWQC[AEF][2Nal][Aib]DNG-NH2; disulfide 2-7; lactam N-11) | 65 nM |
| 81% | 75% | 64% | 5.6% | 0.0% | 0.0% | 0.28 nM | ≥ 1030 µg/mL | ≥ 1000 µg/mL | ≥ 970 µg/mL | ≥ 880 µg/mL | CC(=O)N[C@H]1CCCCNC(=O)[C@@H]2CSSC[C@H](NC(=O)[C@H](CCC(N)=O)NC(=O)[C@H](Cc3c[nH]c4ccccc34)NC1=O)C(=O)N[C@@H](Cc1ccc(OCCN)cc1)C(=O)N[C@@H](Cc1ccc3ccccc3c1)C(=O)NC1(CCOCC1)C(=O)N[C@H](C(=O)N[C@@H](C)C(=O)NCC(N)=O)CCC(=O)N(C)CCCCC(=O)N2 [compound 17] (Ac-KWQC[AEF][2Nal][Thp]EAG-NH2; linker 1-4-8 via X3) | 62 nM |
| 74% | 59% | 41% | 24.5% | 1.1% | 3.6% | 0.59 nM | 310 µg/mL (≈ 188 µM) | 290 µg/mL (≈ 176 µM) | 190 µg/mL (≈ 115 µM) | 110 µg/mL (≈ 66.8 µM) | CC(=O)N[C@H]1CCCCNC(=O)[C@@H]2CSSC[C@H](NC(=O)[C@H](CCC(N)=O)NC(=O)[C@H](Cc3c[nH]c4ccccc34)NC1=O)C(=O)N[C@@H](Cc1ccc(OCCN)cc1)C(=O)N[C@@H](Cc1ccc3ccccc3c1)C(=O)NC(C)(C)C(=O)N[C@H](C(=O)N[C@@H](CC(N)=O)C(=O)N[C@@H](CC(N)=O)C(N)=O)CCC(=O)N(C)CCCCC(=O)N2 [compound 12] (Ac-KWQC[AEF][2Nal][Aib]ENN-NH2; linker 1-4-8 via X3) | 27.9 nM |
